Consider one compound from patent publication US9868763B2, “Modulators of protease activated receptors” (The University of Queensland, priority 2011, dated 2018).

Test [1] relates to HCHF diet-induced obese rats. The test can be described thus: Diet-induced obesity and metabolic syndrome, high carbohydrate high fat (HCHF) fed rats. It is filed as in vivo, Wistar rat. The procedure:
Selective PAR2 antagonist 52 was used to evaluate the therapeutic potential of PAR2 antagonism in regulating adiposity, adipose tissue inflammation and metabolic function in rats fed a diet high in carbohydrates and fats (HCHF). Weekly body weight measurements (0-16 weeks) were recorded for Corn Starch CS (●) and High Carbohydrate High Fat (HCHF) (∘)-fed rats (FIG. 13A), as well as for HCHF (∘) and HCHF+PAR2 antagonist 52 (▴)-treated rats (FIG. 13B). In addition, weekly waist circumference measurements were recorded for CS (●), HCHF (∘), HCHF+PAR2 antagonist 52 (▴)-treated rats (FIG. 13 C). FIG. 13 D illustrates […] body composition measurements in CS (▪), HCHF ( ? ), HCHF+PAR2 antagonist 52 (□)-treated rats.
Relative to rats fed a lean diet containing only corn starch (CS), those receiving the HCHF diet for 16 weeks become obese, gaining 54±4% body weight and 206±43% total fat mass, particularly visceral (abdominal) fat from week 0 to 16 (FIGS. 13A-G). FIG. 13F is an image of the abdominal fat pad at 16 weeks in rat given HCHF diet for 16 weeks, but no treatment. […] The increase in PAR2 expression in adipose tissue (FIG. 14A) and its two component fractions, adipocytes and stromal vascular cell (SVC) fractions (FIG. 14B), were all elevated by HCHF feeding, positively correlating with increased adiposity. Local adipose tissue inflammation was also elevated by HCHF feeding (FIG. 15A-F). Findings indicate that a different endogenous signal—saturated fatty acids such as palmitic acid consumed in a HCHF diet—can prime macrophages to increase their expression of PAR2.
The regulation of metabolic parameters by PAR2 antagonist 52 were measured in diet-induced obese rats including systolic blood pressure measurements in CS (●), HCHF (∘) and HCHF+52 (▴)-treated rats (FIG. 16 A), oral glucose tolerance in CS (●), HCHF (∘) and HCHF+PAR2 antagonist 52 (▴)-treated rats (FIG. 16 B), insulin tolerance in CS (●), HCHF (∘), HCHF+PAR2 antagonist 52 (▴)-treated rats (FIG. 16 C), plasma lipid concentrations in CS, HCHF and HCHF+PAR2 antagonist 52-treated rats (FIG. 16 D and plasma liver enzymes in CS, HCHF and HCHF+52-treated rats (FIG. 16 E, *P<0.05 vs CS; **P<0.05 vs HCHF).
FIGS. 17A-C show representative images (20× magnification) of hepatocyte ultrastructure and fat deposition in CS (A), HCHF (B) and HCHF+PAR2 antagonist 52 (C)-treated rats. […] FIG. 17E illustrates metabolic genes in rat liver of different groups. […] Expression of mRNA in was normalized against 18s rRNA and fold change was calculated relative to CS samples. Error bars are means±SEM; *P<0.05, **P<0.01, ***P<0.001.
Regulation of cardiovascular structure and function by PAR2 antagonist 52 in diet-induced obese rats was also measured (FIG. 18), including diastolic stiffness constant measurements in CS, HCHF, HCHF+ compound 52-treated rats (FIG. 18A) and echocardiographic characterization of cardiac structure in CS, HCHF (at 8 weeks before treatment), HCHF and HCHF+ compound 52-treated rats FIG. 18B. FIGS. 18C and D show echocardiographic characterization of cardiac function in CS, HCHF (at 8 weeks before treatment), HCHF and HCHF+ compound 52-treated rats. FIGS. 18E-G illustrate vascular organ bath responses for noradrenaline (E), sodium nitroprusside (F) and acetylcholine (G) in CS (●), HCHF (∘) and HCHF+[…] (▾)-treated rats. Representative images (40× magnification) of interstitial collagen deposition in the left ventricle of CS(H), HCHF (I) and HCHF+PAR2 antagonist 52 (J)-treated rats. FIGS. 18 K and L are graphical representations of the area of collagen deposition in perivascular (K) and interstitial (L) region of the left ventricle. *P<0.05 vs CS; **P<0.05 vs HCHF.

Another test deals with T1, PAR2 (Homo sapiens, UniProt P55085).
T1 sequence (P55085 26-397): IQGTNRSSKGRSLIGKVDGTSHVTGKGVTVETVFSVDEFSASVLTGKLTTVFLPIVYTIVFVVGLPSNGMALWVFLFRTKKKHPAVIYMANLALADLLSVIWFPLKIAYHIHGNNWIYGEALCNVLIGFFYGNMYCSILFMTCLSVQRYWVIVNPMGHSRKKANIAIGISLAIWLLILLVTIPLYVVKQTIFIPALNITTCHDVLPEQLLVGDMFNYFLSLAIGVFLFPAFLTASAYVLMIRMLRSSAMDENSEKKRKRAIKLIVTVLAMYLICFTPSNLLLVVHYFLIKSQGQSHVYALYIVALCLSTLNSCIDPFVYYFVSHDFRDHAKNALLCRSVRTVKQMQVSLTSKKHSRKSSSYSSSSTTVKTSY
The test can be described thus: PAR2 agonist inhibition (antagonism): intracellular Ca2+ release in HT29 cells. Particulars: other ligands; inhibiting Ca2+ release in HT29 cells; 30 min pre-incubation, agonist at EC80. It is filed as cell-based. Also noted: endogenous in cells; host or cells: HT29 (human colorectal adenocarcinoma). The procedure: Cells are seeded overnight in 96-well black walled, clear bottomed, plate at approximately 2×10^4 to 4×10^5 cells per well. […] The cells are then washed twice with HBSS and transferred to a Polarstar spectrofluorimeter (BMG, Durham N.C.).
The cells are prepared as outlined above then treated with the ‘putative’ antagonist 30 min prior to the addition of either trypsin or a synthetic agonist at a concentration equal to the agonists EC80.
The cells were then treated with 1 μM of the PAR2 agonist 2f-LIGRLO-NH2 (FIG. 2A, n=5) or 100 nM Trypsin (FIG. 2B, n=1). Each data point represents mean±SEM. Net changes in fluorescence were calculated as a percentage relative to the maximum response given 1 μM 2f-LIGRLO-NH2 or 100 nM Trypsin. Changes in fluorescence (% response) were plotted against logarithmic compound concentrations. The half maximal inhibitory concentration (IC50) values were derived from the dose response curve using a nonlinear regression curve in Graphpad Prism v5.

Entries after “also recorded” stand apart in the source; their conditions may differ.

As usually defined, the IC50 is the concentration that inhibits the measured activity by half. A high value points to lower potency. Regarding `CC[C@H](C)[C@@H](NC(=O)[C@H](CC1CCCCC1)NC(=O)c1ccno1)C(=O)N1CCC2(C=Cc3ccccc32)CC1` [Compound 52], in test [1] (10 mg/kg/day oral, weeks 8-16), the body weight gain result is listed as “prevention”, the “metabolic indicators after 16 weeks of HCHF feeding” value was “attenuated or reversed”, the total fat mass result is “prevention” and the “visceral (abdominal) fat deposition” value was “prevention”. In addition, the increased steatosis result in test [1] (HCHF rats) is “prevented”. Further, in test [1] (HCHF-fed rats), the “M1-specific proinflammatory genes in adipose tissue” value is reported as “drastic decreased”; the “M2-specific genes (Mcr2, Mgl1, Ym1, Arg1) in adipose tissue” value was “restored or upregulated”; the “altered Pparg, Ucp2 and Adipoq genes in retroperitoneal adipose tissue” value was “attenuated these changes”; the “altered gene expression in skeletal muscle and pancreas” value was “attenuated this altered gene expression”. In test [1] (HCHF-fed rats), the “development of diet-induced cardiac fibrosis (collagen deposition)” value is “potent inhibitory effect”, the insulin tolerance test result is on record as “improved responsiveness to insulin; also recorded: comparable insulin sensitivity to untreated CS-fed rats” and the “oral glucose tolerance test” value is given as “improved glucose tolerance”. Besides, the “pancreatic genes Glut2 and Beta2” value in test [1] (suppressed in HCHF-fed rats) is listed as “restored; also recorded: normalized”. In test [1] (treated versus untreated HCHF rats), the “liver genes Pparg, Srebf1, Ucp2, Ppargc1a, Cpt and Pnpla2” value is given as “upregulation”. Moreover, the “pancreatic genes Iapp, Atf3, Fas and Id-1 upregulated in HCHF rats” value in test [1] (treatment in vivo) is given as “attenuated”. In test [1] (treatment weeks 8-16), the “elevated triglycerides and systolic blood pressure” value was “except for elevated triglycerides and systolic blood pressure”; the “increase in PAR2 expression in whole adipose, adipocyte and stromovascular cells” value was “prevented”; the “metabolic parameters elevated on HCHF diet (glucose and insulin tolerance, plasma lipids, liver enzymes, cardiac structure and function)” value is recorded as “attenuated”. In addition, at PAR2, the concentration for half-maximal inhibition (IC50) is 1000 nM.
